What was measured:
IKKalpha (h) = target: T1, IKKalpha (h) (Homo sapiens, UniProt O15111); assay: Kinase panel (Cerep); assay type: biochemical; settings: read-out: % inhibition at 10 µM by MC3353, IKKalpha (h), ATP 5 μM
T1 construct: purchased Eurofins Cerep
Description: (§1) The test compound, reference compound or water (control) were mixed with the enzyme (for the exact amount see table below) in the appropriate buffer. Thereafter, the reaction was initiated by adding the required amount of the appropriate substrate and of ATP, and the mixture is incubated at room temperature (variable reaction time, see table below). For control basal measurements, the enzyme was omitted from the reaction mixture. Following incubation, the reaction was stopped by adding 13 mM EDTA. After 5 min, the proper antibody labelled with europium chelate was added. After 60 more min, the fluorescence transfer was measured at λex=337 nm, λem=620 nm and λem=665 nm using a microplate reader (Envision, Perkin Elmer). The enzyme activity was determined by dividing the signal measured at 665 nm by that measured at 620 nm (ratio). The results are expressed as a percent inhibition of the control enzyme activity.

CDC2/CDK1 (h) (cycB) = target: T2, CDC2/CDK1 (h) (cycB) (Homo sapiens, UniProt P06493); assay: Kinase panel (Cerep); assay type: biochemical; settings: read-out: % inhibition at 10 µM by MC3353, CDC2/CDK1 (h) (cycB), ATP 10 μM
T2 construct: purchased Eurofins Cerep
Description: as §1

p38alpha kinase (h) = target: T3, p38alpha kinase (h) (Homo sapiens, UniProt Q16539); assay: Kinase panel (Cerep); assay type: biochemical; settings: read-out: % inhibition at 10 µM by MC3353, p38alpha kinase (h), ATP 100 μM
T3 construct: purchased Eurofins Cerep
Description: as §1

KDR kinase (h) (VEGFR2) = target: T4, KDR kinase (h) (VEGFR2) (Homo sapiens, UniProt P35968); assay: Kinase panel (Cerep); assay type: biochemical; settings: read-out: % inhibition at 10 µM by MC3353, KDR kinase (h) (VEGFR2), ATP 25 μM
T4 construct: purchased Eurofins Cerep
Description: as §1

c-Met kinase (h) = target: T5, c-Met kinase (h) (Homo sapiens, UniProt P08581); assay: Kinase panel (Cerep); assay type: biochemical; settings: read-out: % inhibition at 10 µM by MC3353, c-Met kinase (h), ATP 10 μM
T5 construct: purchased Eurofins Cerep
Description: as §1

PAK4 (h) = target: T6, PAK4 (h) (Homo sapiens, UniProt O96013); assay: Kinase panel (Cerep); assay type: biochemical; settings: read-out: % inhibition at 10 µM by MC3353, PAK4 (h), ATP 1 μM
T6 construct: purchased Eurofins Cerep
Description: as §1

CaMK2alpha (h) = target: T7, CaMK2alpha (h) (Homo sapiens, UniProt Q9UQM7); assay: Kinase panel (Cerep); assay type: biochemical; settings: read-out: % inhibition at 10 µM by MC3353, CaMK2alpha (h), ATP 10 μM
T7 construct: purchased Eurofins Cerep
Description: as §1

TRKA (h) = target: T8, TRKA (h) (Homo sapiens, UniProt P04629); assay: Kinase panel (Cerep); assay type: biochemical; settings: read-out: % inhibition at 10 µM by MC3353, TRKA (h), ATP 100 μM
T8 construct: purchased Eurofins Cerep
Description: as §1

EGFR kinase (h) = target: T9, EGFR kinase (h) (Homo sapiens, UniProt P00533); assay: Kinase panel (Cerep); assay type: biochemical; settings: read-out: % inhibition at 10 µM by MC3353, EGFR kinase (h), ATP 10 μM
T9 construct: purchased Eurofins Cerep
Description: as §1

CHK1 (h) = target: T10, CHK1 (h) (Homo sapiens, UniProt O14757); assay: Kinase panel (Cerep); assay type: biochemical; settings: read-out: % inhibition at 10 µM by MC3353, CHK1 (h), ATP 30 μM
T10 construct: purchased Eurofins Cerep
Description: as §1

PAK2 (h) = target: T11, PAK2 (h) (Homo sapiens, UniProt Q13177); assay: Kinase panel (Cerep); assay type: biochemical; settings: read-out: % inhibition at 10 µM by MC3353, PAK2 (h), ATP 50 μM
T11 construct: purchased Eurofins Cerep
Description: as §1

PKCbeta 2 (h) = target: T12, PKCbeta 2 (h) (Homo sapiens, UniProt P05771); assay: Kinase panel (Cerep); assay type: biochemical; settings: read-out: % inhibition at 10 µM by MC3353, PKCbeta 2 (h), ATP 30 μM
T12 construct: purchased Eurofins Cerep
Description: as §1

PKA (h) = target: T13, PKA (h) (Homo sapiens, UniProt P17612); assay: Kinase panel (Cerep); assay type: biochemical; settings: read-out: % inhibition at 10 µM by MC3353, PKA (h), ATP 1 μM
T13 construct: purchased Eurofins Cerep
Description: as §1

SIK (h) = target: T14, SIK (h) (Homo sapiens, UniProt P57059); assay: Kinase panel (Cerep); assay type: biochemical; settings: read-out: % inhibition at 10 µM by MC3353, SIK (h), ATP 30 μM
T14 construct: purchased Eurofins Cerep
Description: as §1

CHK2 (h) = target: T15, CHK2 (h) (Homo sapiens, UniProt O96017); assay: Kinase panel (Cerep); assay type: biochemical; settings: read-out: % inhibition at 10 µM by MC3353, CHK2 (h), ATP 30 μM
T15 construct: purchased Eurofins Cerep
Description: as §1

FGFR3 kinase (h) = target: T16, FGFR3 kinase (h) (Homo sapiens, UniProt P22607); assay: Kinase panel (Cerep); assay type: biochemical; settings: read-out: % inhibition at 10 µM by MC3353, FGFR3 kinase (h), ATP 10 μM
T16 construct: purchased Eurofins Cerep
Description: as §1

JNK1 (h) = target: T17, JNK1 (h) (Homo sapiens, UniProt P45983); assay: Kinase panel (Cerep); assay type: biochemical; settings: read-out: % inhibition at 10 µM by MC3353, JNK1 (h), ATP 10 μM
T17 construct: purchased Eurofins Cerep
Description: as §1

U-937 = assay: Cell viability, trypan blue exclusion; assay type: cell-based, human
Description: (§2) U-937 (acute myeloid leukemia), RAJI (Burkitt’s lymphoma), PC-3 (prostate cancer), and MDA-MB-231 (breast cancer) cell lines were obtained from the Deutsche Sammlung für Mikroorganismen and Zellkulturen (DSZM, Braunschweig, Germany) and were cultured in RPMI 1640 (Lonza, Verviers, Belgium) complemented with 10% FBS (Lonza, Verviers, Belgium) and 1% antibiotic-antimycotic (Lonza). RPMI1788 (normal B lymphocytes) and KG-1 (acute myeloid leukemia) cell lines were obtained from the American Type Culture Collection (ATCC) and were maintained in RPMI 1640 complemented with 20% FBS and IMDM complemented with 10% FBS, respectively. Cell lines were treated with compounds at the indicated concentrations in the exponential growth phase.
(§3) Proliferation and viability of U-937, KG-1, RAJI, PC-3, MDA-MB-231, RPMI1788, PBMCs, and PHA_PBMCs were assessed by trypan blue exclusion assays at the indicated time points. Nuclear morphology changes associated with apoptosis and necrosis were evaluated by fluorescence microscopy after Hoechst and propidium iodide (PI) staining as previously described.
(§4) IC50 values of compounds against cellular viability were determined by using nonlinear regression fitting curves with GraphPad Prism 8 or CalcuSyn software The t test used for statistical analyses was performed with GraphPad Prism 8. All the tests were one-tailed, and a p value < 0.05 was considered statistically significant.

PC-3 = assay: Cell viability, trypan blue exclusion; assay type: cell-based, human
Description: as §2, §3, §4

T10 sequence (O14757 whole entry): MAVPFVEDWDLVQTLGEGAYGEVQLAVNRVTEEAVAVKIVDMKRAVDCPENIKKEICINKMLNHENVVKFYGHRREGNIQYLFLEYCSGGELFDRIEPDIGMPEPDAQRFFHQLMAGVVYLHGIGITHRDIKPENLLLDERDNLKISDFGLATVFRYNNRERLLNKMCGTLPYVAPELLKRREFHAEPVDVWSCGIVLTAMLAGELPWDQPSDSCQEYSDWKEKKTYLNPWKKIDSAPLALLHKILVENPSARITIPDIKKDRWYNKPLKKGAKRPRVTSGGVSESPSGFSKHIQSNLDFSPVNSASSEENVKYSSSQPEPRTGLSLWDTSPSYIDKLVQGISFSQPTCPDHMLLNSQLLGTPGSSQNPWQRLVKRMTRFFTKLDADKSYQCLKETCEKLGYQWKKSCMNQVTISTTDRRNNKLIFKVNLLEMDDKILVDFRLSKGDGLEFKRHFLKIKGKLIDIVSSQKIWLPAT
T17 sequence (P45983 whole entry): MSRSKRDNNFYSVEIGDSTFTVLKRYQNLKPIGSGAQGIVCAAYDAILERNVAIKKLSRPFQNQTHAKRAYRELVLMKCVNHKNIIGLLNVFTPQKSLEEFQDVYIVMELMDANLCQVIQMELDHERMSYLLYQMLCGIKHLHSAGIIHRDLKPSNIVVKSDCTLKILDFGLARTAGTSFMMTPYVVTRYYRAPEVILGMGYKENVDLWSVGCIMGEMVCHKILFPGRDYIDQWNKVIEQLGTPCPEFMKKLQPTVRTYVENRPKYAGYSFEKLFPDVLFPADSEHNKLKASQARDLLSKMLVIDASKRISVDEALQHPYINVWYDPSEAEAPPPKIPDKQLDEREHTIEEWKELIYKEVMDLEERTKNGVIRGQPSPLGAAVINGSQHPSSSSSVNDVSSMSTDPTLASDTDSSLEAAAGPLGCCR
T15 sequence (O96017 whole entry): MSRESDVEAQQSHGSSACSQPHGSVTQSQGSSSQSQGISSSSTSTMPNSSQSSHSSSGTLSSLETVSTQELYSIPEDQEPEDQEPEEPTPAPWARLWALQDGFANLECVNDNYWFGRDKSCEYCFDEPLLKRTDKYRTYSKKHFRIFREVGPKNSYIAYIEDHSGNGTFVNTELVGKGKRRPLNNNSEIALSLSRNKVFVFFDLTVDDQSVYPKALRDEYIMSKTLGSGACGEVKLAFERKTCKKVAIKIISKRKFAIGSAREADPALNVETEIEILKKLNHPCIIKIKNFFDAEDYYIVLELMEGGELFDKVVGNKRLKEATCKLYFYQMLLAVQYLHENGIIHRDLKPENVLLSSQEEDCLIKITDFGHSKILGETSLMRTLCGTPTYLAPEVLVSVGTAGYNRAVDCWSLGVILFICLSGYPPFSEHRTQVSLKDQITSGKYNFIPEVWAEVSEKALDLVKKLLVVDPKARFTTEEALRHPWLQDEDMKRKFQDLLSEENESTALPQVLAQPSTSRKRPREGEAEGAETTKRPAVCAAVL
T2 sequence (P06493 whole entry): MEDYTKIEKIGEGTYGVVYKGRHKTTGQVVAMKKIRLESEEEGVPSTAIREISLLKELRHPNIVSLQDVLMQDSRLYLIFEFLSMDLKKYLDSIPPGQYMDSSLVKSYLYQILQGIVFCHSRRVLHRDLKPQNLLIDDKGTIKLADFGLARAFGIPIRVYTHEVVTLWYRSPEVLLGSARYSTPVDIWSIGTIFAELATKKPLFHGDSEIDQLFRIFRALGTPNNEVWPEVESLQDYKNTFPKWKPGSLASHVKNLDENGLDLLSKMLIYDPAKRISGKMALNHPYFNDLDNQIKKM
T2 sequence (P14635 whole entry partner): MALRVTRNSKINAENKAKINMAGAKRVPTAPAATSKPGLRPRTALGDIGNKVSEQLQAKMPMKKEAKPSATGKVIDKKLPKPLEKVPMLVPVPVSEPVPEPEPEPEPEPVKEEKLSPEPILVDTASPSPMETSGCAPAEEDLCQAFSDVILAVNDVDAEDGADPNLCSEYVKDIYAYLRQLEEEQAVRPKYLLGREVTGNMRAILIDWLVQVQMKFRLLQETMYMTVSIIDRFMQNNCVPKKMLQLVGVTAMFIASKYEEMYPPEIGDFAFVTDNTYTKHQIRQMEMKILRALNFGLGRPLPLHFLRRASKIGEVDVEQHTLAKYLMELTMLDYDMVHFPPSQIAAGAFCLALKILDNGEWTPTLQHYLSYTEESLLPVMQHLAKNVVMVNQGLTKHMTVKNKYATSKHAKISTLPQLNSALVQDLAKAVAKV
T3 sequence (Q16539 whole entry): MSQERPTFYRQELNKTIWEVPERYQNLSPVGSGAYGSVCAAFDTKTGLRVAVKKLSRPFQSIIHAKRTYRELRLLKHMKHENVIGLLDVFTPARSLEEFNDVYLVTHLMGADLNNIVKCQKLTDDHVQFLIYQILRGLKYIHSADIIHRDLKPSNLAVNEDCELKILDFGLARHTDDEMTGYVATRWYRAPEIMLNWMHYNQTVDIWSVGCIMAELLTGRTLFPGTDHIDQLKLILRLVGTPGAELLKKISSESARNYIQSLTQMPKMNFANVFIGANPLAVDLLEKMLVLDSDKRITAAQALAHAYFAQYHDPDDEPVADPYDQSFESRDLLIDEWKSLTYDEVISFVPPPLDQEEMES
T6 sequence (O96013 whole entry): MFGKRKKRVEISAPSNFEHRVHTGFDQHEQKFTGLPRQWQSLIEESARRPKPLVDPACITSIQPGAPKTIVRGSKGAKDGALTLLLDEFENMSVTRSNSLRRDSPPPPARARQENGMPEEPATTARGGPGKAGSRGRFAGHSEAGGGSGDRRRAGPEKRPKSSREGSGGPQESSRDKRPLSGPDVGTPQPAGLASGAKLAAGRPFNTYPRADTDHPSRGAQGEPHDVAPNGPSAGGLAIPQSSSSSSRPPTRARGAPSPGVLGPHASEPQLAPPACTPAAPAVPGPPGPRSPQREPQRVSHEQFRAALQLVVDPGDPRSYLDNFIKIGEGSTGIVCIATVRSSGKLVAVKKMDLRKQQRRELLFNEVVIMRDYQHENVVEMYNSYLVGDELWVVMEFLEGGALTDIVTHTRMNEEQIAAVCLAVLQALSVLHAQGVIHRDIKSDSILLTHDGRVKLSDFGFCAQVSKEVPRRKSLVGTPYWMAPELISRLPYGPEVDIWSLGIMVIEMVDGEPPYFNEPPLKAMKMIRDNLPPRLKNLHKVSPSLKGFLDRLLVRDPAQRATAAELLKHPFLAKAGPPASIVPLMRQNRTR
T1 sequence (O15111 whole entry): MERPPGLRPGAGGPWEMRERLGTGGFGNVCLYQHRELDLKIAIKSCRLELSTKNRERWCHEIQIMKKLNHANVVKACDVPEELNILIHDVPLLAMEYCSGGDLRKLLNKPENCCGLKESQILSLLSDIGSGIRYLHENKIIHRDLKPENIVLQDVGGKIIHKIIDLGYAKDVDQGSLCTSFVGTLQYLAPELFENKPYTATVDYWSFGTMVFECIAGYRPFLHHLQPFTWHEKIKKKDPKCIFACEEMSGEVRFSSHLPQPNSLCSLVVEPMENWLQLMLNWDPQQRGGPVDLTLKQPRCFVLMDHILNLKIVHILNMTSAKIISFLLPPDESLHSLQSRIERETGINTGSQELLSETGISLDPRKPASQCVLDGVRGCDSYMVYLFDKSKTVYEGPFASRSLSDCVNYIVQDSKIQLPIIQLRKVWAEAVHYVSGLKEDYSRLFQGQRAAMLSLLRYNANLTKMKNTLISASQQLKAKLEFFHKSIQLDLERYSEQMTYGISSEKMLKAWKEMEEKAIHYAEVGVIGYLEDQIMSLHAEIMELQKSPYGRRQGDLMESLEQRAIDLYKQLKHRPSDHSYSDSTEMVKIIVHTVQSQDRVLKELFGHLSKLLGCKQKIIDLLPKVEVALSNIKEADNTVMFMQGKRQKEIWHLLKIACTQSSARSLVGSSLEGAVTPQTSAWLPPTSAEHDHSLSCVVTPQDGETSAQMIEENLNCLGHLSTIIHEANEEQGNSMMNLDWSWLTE
T11 sequence (Q13177 whole entry): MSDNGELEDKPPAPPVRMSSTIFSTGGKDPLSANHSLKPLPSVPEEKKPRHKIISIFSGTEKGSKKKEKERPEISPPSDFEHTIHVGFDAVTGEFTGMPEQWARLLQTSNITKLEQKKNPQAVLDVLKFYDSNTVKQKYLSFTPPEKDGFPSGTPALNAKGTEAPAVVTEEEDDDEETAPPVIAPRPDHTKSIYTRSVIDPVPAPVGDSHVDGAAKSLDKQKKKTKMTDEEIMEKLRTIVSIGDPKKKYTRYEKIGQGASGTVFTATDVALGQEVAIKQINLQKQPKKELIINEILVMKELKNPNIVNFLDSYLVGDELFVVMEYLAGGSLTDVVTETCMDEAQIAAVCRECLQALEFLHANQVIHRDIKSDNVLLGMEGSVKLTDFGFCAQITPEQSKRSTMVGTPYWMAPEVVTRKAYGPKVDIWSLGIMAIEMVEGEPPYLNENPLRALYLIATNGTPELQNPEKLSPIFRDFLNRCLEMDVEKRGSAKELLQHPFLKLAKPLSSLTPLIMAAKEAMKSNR
T7 sequence (Q9UQM7 whole entry): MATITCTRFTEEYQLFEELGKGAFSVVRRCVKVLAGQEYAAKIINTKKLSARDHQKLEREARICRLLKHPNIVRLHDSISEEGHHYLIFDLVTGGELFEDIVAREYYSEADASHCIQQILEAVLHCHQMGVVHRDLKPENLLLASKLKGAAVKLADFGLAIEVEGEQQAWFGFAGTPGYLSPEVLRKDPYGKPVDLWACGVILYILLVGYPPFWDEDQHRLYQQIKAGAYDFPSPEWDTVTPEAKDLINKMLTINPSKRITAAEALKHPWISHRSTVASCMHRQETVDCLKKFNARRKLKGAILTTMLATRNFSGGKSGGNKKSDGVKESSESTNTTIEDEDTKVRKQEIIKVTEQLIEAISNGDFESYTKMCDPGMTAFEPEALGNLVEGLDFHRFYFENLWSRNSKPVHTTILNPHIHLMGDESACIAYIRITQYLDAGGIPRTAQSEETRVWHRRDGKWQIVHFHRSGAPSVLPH

Compound O=C(Nc1ccc(NC(=O)c2ccc(Nc3ccnc4ccccc34)cc2)cc1)OCc1ccccc1 [MC3353, Benzyl (4-(4-(quinolin-4-ylamino)benzamido)phenyl)carbamate] has an inhibition at 10 µM (IKKalpha (h)) of 18%, an inhibition at 10 µM (CDC2/CDK1 (h) (cycB)) of -25% and an inhibition at 10 µM (p38alpha kinase (h)) of -58%. It also gave an inhibition at 10 µM (KDR kinase (h) (VEGFR2)) of -111%, an inhibition at 10 µM (c-Met kinase (h)) of -116% and an inhibition at 10 µM (PAK4 (h)) of -4%. It also gave an inhibition at 10 µM (CaMK2alpha (h)) of -22%, an inhibition at 10 µM (TRKA (h)) of 67% and an inhibition at 10 µM (EGFR kinase (h)) of 5%. For the same compound, the inhibition at 10 µM (CHK1 (h)) was 7%, the inhibition at 10 µM (PAK2 (h)) was -135% and the inhibition at 10 µM (PKCbeta 2 (h)) was 11%. For the same compound, the inhibition at 10 µM (PKA (h)) was 27%, the inhibition at 10 µM (SIK (h)) was 33% and the inhibition at 10 µM (CHK2 (h)) was -30%. The inhibition at 10 µM (FGFR3 kinase (h)) was -169%, the inhibition at 10 µM (JNK1 (h)) was -32% and the “Selectivity index (IC50 PBMCs/IC50 cell line), U-937” value (U-937; 48 h) was “(24.0)”. For the same compound, the “Selectivity index (IC50 PHA_PBMCs/IC50 cell line), U-937” value (U-937; 48 h) was “(12.4)”, the “Selectivity index (IC50 RPMI1788/IC50 cell line), U-937” value (U-937; 48 h) was “(6.6)” and the IC50 (U-937; Homo sapiens, U-937, 48 h of treatment, read-out: IC50 ± SD, cell viability, U-937) was 400 nM. The “Selectivity index (IC50 PBMCs/IC50 cell line), PC-3” value (PC-3; 48 h) was “(9.8)”, the “Selectivity index (IC50 PHA_PBMCs/IC50 cell line), PC-3” value (PC-3; 48 h) was “(5.1)” and the “Selectivity index (IC50 RPMI1788/IC50 cell line), PC-3” value (PC-3; 48 h) was “(2.7)”. For the same compound, the IC50 (PC-3; Homo sapiens, PC-3, 48 h of treatment, read-out: IC50 ± SD, cell viability, PC-3) was 900 ± 400 nM.
